In EPA's ToxRefDB 2:

How the values were obtained:
rat [1] = conditions: Prenatal developmental toxicity study, wistar, Oral, Water, dose end: 19 GD
rat [2] = conditions: Subchronic oral toxicity in rodents, fischer, Feed, dose end: 13 week, group: systemic
rabbit [3] = conditions: Prenatal developmental toxicity study, new zealand white, Oral, Gavage/Intubation, dose end: 18 GD, group: maternal
rat [4] = conditions: Multigenerational reproductive toxicity study, wistar, Oral, Water, dose end: 1 generation
mouse = conditions: Subchronic oral toxicity in rodents, b6c3f1, Feed, dose end: 13 week, group: systemic, systemic / organ weight / liver / absolute + systemic / organ weight / liver / relative to body weight + systemic / pathology microscopic / …
rat [5] = conditions: Prenatal developmental toxicity study, fischer, Oral, Gavage/Intubation, dose end: 15 GD
rat [6] = conditions: Sub-acute repeat dose toxicity, sprague dawley, Oral, Gavage/Intubation, dose end: 36 day, group: systemic
rabbit [7] = conditions: Prenatal developmental toxicity study, Oral, Gavage/Intubation, dose end: 19 GD
rabbit [8] = conditions: Prenatal developmental toxicity study, new zealand white, Oral, Gavage/Intubation, dose end: 19 GD, group: maternal
rat [9] = conditions: Fertility (Segment I), sprague dawley, Oral, Gavage/Intubation, dose end: 1 generation
dog [10] = conditions: Subchronic oral toxicity in nonrodent, beagle, Gavage/Intubation, dose end: 90 day, group: systemic, systemic / in life observation / clinical signs / emesis + systemic / in life observation / clinical signs / erythema + systemic / in life …
rat [11] = conditions: Subchronic oral toxicity in rodents, sprague dawley, Gavage/Intubation, dose end: 90 day, group: systemic
rat [12] = conditions: Fertility (Segment I), sprague dawley, Oral, Gavage/Intubation, dose end: 1 generation, group: parental
rat [13] = conditions: Prenatal developmental toxicity study; sprague dawley; Oral; Gavage/Intubation; dose end: 18 GD; group: maternal; systemic / in life observation / body weight / body weight + systemic / in life observation / body weight / body weight gain + systemic / in…
rabbit [14] = conditions: Sub-acute repeat dose toxicity, new zealand white, Oral, Gavage/Intubation, dose end: 5 day, group: systemic
dog [15] = conditions: Sub-acute repeat dose toxicity, beagle, Oral, Gavage/Intubation, dose end: 15 day, group: systemic
rat [16] = conditions: Sub-acute repeat dose toxicity, sprague dawley, Oral, Gavage/Intubation, dose end: 21 day, group: systemic
dog [17] = conditions: Sub-acute repeat dose toxicity, beagle, Oral, Gavage/Intubation, dose end: 5 day, group: systemic
[18] = group: developmental, developmental / developmental malformation / bone / incomplete ossification + developmental / developmental malformation / bone / wavy
[19] = group: maternal, reproductive / reproductive performance / pregnancy / pregnancy + systemic / in life observation / body weight / body weight + systemic / in…
[20] = systemic / clinical chemistry / cholesterol / cholesterol
[21] = reproductive / reproductive performance / aborted / aborted + systemic / in life observation / mortality / mortality
[22] = group: offspring, developmental / developmental landmark / eye opening / eye opening + developmental / developmental landmark / incisor eruption / incisor …
[23] = group: offspring, developmental / developmental malformation / bone / kinked
[24] = group: parental, systemic / in life observation / body weight / body weight + systemic / in life observation / body weight / body weight gain + systemic / in…
[25] = group: reproductive, reproductive / reproductive performance / implantations / implantations + reproductive / reproductive performance / resorptions / …
[26] = group: developmental, developmental / developmental malformation / bone / delayed ossification
[27] = group: developmental, developmental / developmental malformation / bone / delayed ossification + developmental / developmental malformation / bone / supernumerary…
[28] = group: maternal, systemic / in life observation / clinical signs / ocular discharge + systemic / in life observation / clinical signs / red or crusty …
[29] = systemic / in life observation / body weight / body weight gain + systemic / in life observation / body weight / offspring (pup) weight + …
[30] = group: developmental, systemic / in life observation / body weight / fetal weight
[31] = group: maternal, systemic / in life observation / body weight / body weight + systemic / in life observation / food consumption / food consumption + systemic…
[32] = systemic / in life observation / clinical signs / dialated pupils + systemic / in life observation / food consumption / food consumption
[33] = group: maternal, reproductive / reproductive performance / estrous cycle / length
[34] = group: parental, systemic / in life observation / body weight / body weight + systemic / in life observation / clinical signs / [other] + systemic / in life …
[35] = group: parental, systemic / in life observation / clinical signs / altered breathing rate + systemic / in life observation / clinical signs / compulsive …
[36] = systemic / clinical chemistry / [other] / [other] + systemic / clinical chemistry / aspartate aminotransferase (ast/sgot) / aspartate …
[37] = systemic / organ weight / liver / absolute + systemic / in life observation / clinical signs / salivation
[38] = systemic / in life observation / body weight / body weight + systemic / in life observation / clinical signs / altered breathing rate + …
[39] = systemic / in life observation / body weight / body weight gain + systemic / in life observation / clinical signs / [other] + systemic / in …
[40] = systemic / in life observation / clinical signs / abnormal feces + systemic / in life observation / clinical signs / altered breathing rate
[41] = systemic / clinical chemistry / alanine aminotransferase (alt/sgpt) / alanine aminotransferase (alt/sgpt) + systemic / hematology / platelet…
[42] = systemic / in life observation / body weight / body weight + systemic / clinical chemistry / alanine aminotransferase (alt/sgpt) / alanine …
[43] = systemic / clinical chemistry / alanine aminotransferase (alt/sgpt) / alanine aminotransferase (alt/sgpt) + systemic / clinical chemistry / …
[44] = systemic / organ weight / liver / relative to body weight
[45] = systemic / in life observation / body weight / body weight + systemic / in life observation / clinical signs / emesis + systemic / in life …
[46] = systemic / in life observation / clinical signs / salivation + systemic / in life observation / clinical signs / emesis

## CCCCC(CC)C(=O)O (stereo not given) [2-Ethylhexanoic acid]
Rat [1]; [18]
  LEL: 100 mg/kg/day
  LOAEL: 100 mg/kg/day
  NEL: < 100 mg/kg/day
  NOAEL: < 100 mg/kg/day
Rat [1]; group: maternal, reproductive / reproductive performance / pregnancy / pregnancy
  LEL: 300 mg/kg/day
Rat [1]; [19]
  LOAEL: > 600 mg/kg/day
  NEL: 100 mg/kg/day
  NOAEL: ≥ 600 mg/kg/day
Rat [2]; [20]
  LEL: 61 mg/kg/day
  NEL: < 61 mg/kg/day
Rat [2]; systemic / organ weight / liver / relative to body weight + systemic / pathology microscopic / liver / hypertrophy
  LOAEL: 303 mg/kg/day
Rat [2]; systemic / organ weight / liver / relative to body weight + systemic / pathology microscopic / liver / hypertrophy + systemic / clinical …
  NOAEL: 61 mg/kg/day
Rabbit [3]; [21]
  LEL: 125 mg/kg/day
  LOAEL: 125 mg/kg/day
Rabbit [3]; reproductive / reproductive performance / aborted / aborted + systemic / in life observation / mortality / mortality + systemic / in life …
  NOAEL: 25 mg/kg/day
Rat [4]; [22]
  LOAEL: > 600 mg/kg/day
  NOAEL: ≥ 600 mg/kg/day
Rat [4]; [23]
  LEL: 100 mg/kg/day
  NEL: < 100 mg/kg/day
Rat [4]; [24]
  LOAEL: > 600 mg/kg/day
  NEL: 100 mg/kg/day
  NOAEL: ≥ 600 mg/kg/day
Rat [4]; group: parental, systemic / pathology microscopic / uterus / dilatation + systemic / pathology microscopic / vagina / hyperplasia + systemic / pathology …
  LEL: 300 mg/kg/day
Rat [4]; [25]
  LEL: 600 mg/kg/day
  LOAEL: > 600 mg/kg/day
  NOAEL: ≥ 600 mg/kg/day
mouse
  LEL: 885 mg/kg/day
  LOAEL: 885 mg/kg/day
  NEL: 180 mg/kg/day
  NOAEL: 180 mg/kg/day
Rat [5]; [26]
  LEL: 250 mg/kg/day
  LOAEL: 250 mg/kg/day
Rat [5]; [27]
  NEL: 100 mg/kg/day
  NOAEL: 100 mg/kg/day
Rat [5]; group: maternal, reproductive / reproductive performance / postimplantation loss / postimplantation loss + reproductive / reproductive performance / …
  NEL: 250 mg/kg/day
Rat [5]; [28]
  LEL: 500 mg/kg/day
  LOAEL: 500 mg/kg/day
  NOAEL: 250 mg/kg/day

## COCCOC[C@H](CC1(C(=O)NC2CCC(C(=O)O)CC2)CCCC1)C(=O)Oc1ccc2c(c1)CCC2 (stereo not given in full) [Candoxatril]
Rat [6]; [29]
  LOAEL: > 1200 mg/kg/day
  NOAEL: ≥ 1200 mg/kg/day
Rat [6]; systemic / in life observation / clinical signs / hyperactivity
  NEL: < 120 mg/kg/day
Rabbit [7]; [30]
  LEL: 1000 mg/kg/day
  LOAEL: > 1000 mg/kg/day
  NOAEL: ≥ 1000 mg/kg/day
Rabbit [7]; [31]
  LEL: 1000 mg/kg/day
  LOAEL: > 1000 mg/kg/day
  NEL: 250 mg/kg/day
  NOAEL: ≥ 1000 mg/kg/day

## CNCc1cc(F)ccc1Oc1ccc(Cl)c(Cl)c1
Rabbit [8]; systemic / in life observation / clinical signs / dialated pupils
  LEL: 10 mg/kg/day
Rabbit [8]; [32]
  LOAEL: > 30 mg/kg/day
  NOAEL: ≥ 30 mg/kg/day
Rat [9]; [33]
  LEL: 30 mg/kg/day
  LOAEL: > 60 mg/kg/day
  NEL: 10 mg/kg/day
  NOAEL: ≥ 60 mg/kg/day
Rat [9]; [34]
  LOAEL: > 60 mg/kg/day
  NOAEL: ≥ 60 mg/kg/day
Rat [9]; [35]
  LEL: 10 mg/kg/day
  NEL: < 10 mg/kg/day
Dog [10]
  LEL: 2 mg/kg/day
  LOAEL: > 30 mg/kg/day
  NEL: < 2 mg/kg/day
  NOAEL: ≥ 30 mg/kg/day
Rat [11]; [36]
  LOAEL: > 150 mg/kg/day
  NOAEL: ≥ 150 mg/kg/day
Rat [11]; [37]
  LEL: 10 mg/kg/day
  NEL: < 10 mg/kg/day
Rat [12]; [38]
  LOAEL: > 100 mg/kg/day
  NEL: 10 mg/kg/day
  NOAEL: ≥ 100 mg/kg/day
Rat [12]; systemic / in life observation / clinical signs / salivation + systemic / in life observation / food consumption / food consumption
  LEL: 30 mg/kg/day
Rat [13]
  LEL: 25 mg/kg/day
  LOAEL: > 50 mg/kg/day
  NOAEL: ≥ 50 mg/kg/day
Rabbit [14]; [39]
  LOAEL: > 100 mg/kg/day
  NOAEL: ≥ 100 mg/kg/day
Rabbit [14]; [40]
  LEL: 10 mg/kg/day
  NEL: < 10 mg/kg/day
Dog [15]; [41]
  LOAEL: > 60 mg/kg/day
  NOAEL: ≥ 60 mg/kg/day
Dog [15]; [42]
  LEL: 3 mg/kg/day
  NEL: < 3 mg/kg/day
Rat [16]; [43]
  LOAEL: > 300 mg/kg/day
  NOAEL: ≥ 300 mg/kg/day
Rat [16]; [44]
  LEL: 10 mg/kg/day
  NEL: < 10 mg/kg/day
Dog [17]; [45]
  LOAEL: > 10 mg/kg/day
  NOAEL: ≥ 10 mg/kg/day
Dog [17]; [46]
  LEL: 3 mg/kg/day
  NEL: < 3 mg/kg/day
